Test results published in publication PMC11345841, “Exploring 2-Sulfonylpyrimidine Warheads as Acrylamide Surrogates for Targeted Covalent Inhibition: A BTK Story” (Journal of Medicinal Chemistry, 2024).

Assays:
[1] = Plasma stability assay; format: in vitro ADME; conditions: 3 h incubation at 37 °C; 50% human plasma; 1 μM compound
[2] = Electrophilic reactivity assessment (GSH assay); conditions: for stability/reactivity with 10-fold excess of GSH in PBS: up to 6 h at 20 °C, LC-MS
[3] = system: full-length wild-type BTK; test: Intact protein mass spectrometry, covalent modification; format: binding; conditions: 2:1 ratio of compound to protein (40 μM/20 μM), 23 °C

SMILES	% compound remaining, human plasma stability [1]	stability/reactivity with 10-fold excess of GSH in PBS [2]	covalent modification of full-length WT BTK (intact mass) [3]	pseudo-first-order rate constant kGSH/PBS ([2]; 100 μM compound, 1 mM GSH, PBS pH 7.4, 20 °C, triplicate)
Cc1cnc(S(C)(=O)=O)nc1N1CCCC(n2nc(-c3ccc(Oc4ccccc4)cc3)c3c(N)ncnc32)C1 (stereo not shown) [Compound 8a, 1-(1-(5-Methyl-2-(methylsulfonyl)pyrimidin-4-yl)piperidin-3-yl)-3-(4-phenoxyphenyl)-1H-pyrazolo[3,4-d]pyrimidin-4-amine]	–	fully stable	–	–
C=CC(=O)N1CCC[C@@H](n2nc(-c3ccc(Oc4ccccc4)cc3)c3c(N)ncnc32)C1 [Compound 1g, Ibrutinib, reference compound]	–	–	modified full-length BTK	–
CNC(=O)c1cnc(S(C)(=O)=O)nc1N1CCCC(n2nc(-c3ccc(Oc4ccccc4)cc3)c3c(N)ncnc32)C1 (stereo not shown) [Compound 8d, 4-(3-(4-Amino-3-(4-phenoxyphenyl)-1H-pyrazolo[3,4-d]pyrimidin-1-yl)piperidin-1-yl)-N-methyl-2-(methylsulfonyl)pyrimidine-5-carboxamide]	–	mild reactivity	clean and quantitative modification in under an hour	47 × 10^–5 ± 0.5 × 10^–5 s^–1

Now from value to molecule, other results behind:

% compound remaining, human plasma stability [1]	SMILES	stability/reactivity with 10-fold excess of GSH in PBS [2]	covalent modification of full-length WT BTK (intact mass) [3]	pseudo-first-order rate constant kGSH/PBS ([2]; 100 μM compound, 1 mM GSH, PBS pH 7.4, 20 °C, triplicate)
20–50%	CCOC(=O)c1cnc(S(C)(=O)=O)nc1N1CCC[C@@H](n2nc(-c3ccc(Oc4ccccc4)cc3)c3c(N)ncnc32)C1 [Compound 8c, Ethyl (R)-4-(3-(4-Amino-3-(4-phenoxyphenyl)-1H-pyrazolo[3,4-d]pyrimidin-1-yl)piperidin-1-yl)-2-(methylsulfonyl)pyrimidine-5-carboxylate]	–	–	–
20–50%	COC(=O)c1cnc(S(C)(=O)=O)nc1N1CCCC(n2nc(-c3ccc(Oc4ccccc4)cc3)c3c(N)ncnc32)C1 (stereo not shown) [Compound 8b, Methyl 4-(3-(4-Amino-3-(4-phenoxyphenyl)-1H-pyrazolo[3,4-d]pyrimidin-1-yl)piperidin-1-yl)-2-(methylsulfonyl)pyrimidine-5-carboxylate]	–	–	–
